Columns and labels:
Rattus norvegicus = species: Rattus norvegicus; assay: Tested for effective concentration against 5-HT mediated depolarization of isolated rat vagus nerve; type: functional
D(2) dopamine receptor = D(2) dopamine receptor (Homo sapiens, UniProt P14416); assay: Binding affinity against Dopamine D2 receptor
[1] = target: T1, 5-hydroxytryptamine receptor 1A (Mus musculus, UniProt Q64264); assay: Binding affinity against 5-hydroxytryptamine 1A receptor
T1 sequence (Q64264 whole entry): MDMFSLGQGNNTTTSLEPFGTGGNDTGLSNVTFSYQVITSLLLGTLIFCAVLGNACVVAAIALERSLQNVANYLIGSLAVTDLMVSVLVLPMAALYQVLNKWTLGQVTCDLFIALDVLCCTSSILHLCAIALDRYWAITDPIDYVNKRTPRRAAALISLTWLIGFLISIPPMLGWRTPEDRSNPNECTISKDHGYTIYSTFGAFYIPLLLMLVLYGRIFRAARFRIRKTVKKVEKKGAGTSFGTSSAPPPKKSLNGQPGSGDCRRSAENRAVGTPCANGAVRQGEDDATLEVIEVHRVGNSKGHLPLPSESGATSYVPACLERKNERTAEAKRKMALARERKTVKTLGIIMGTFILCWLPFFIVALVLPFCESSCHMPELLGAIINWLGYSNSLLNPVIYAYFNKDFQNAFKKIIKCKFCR

[2] = target: T2, Alpha-2B adrenergic receptor (Homo sapiens, UniProt P18089); assay: Binding affinity against Alpha-2B adrenergic receptor
T2 sequence (P18089 whole entry): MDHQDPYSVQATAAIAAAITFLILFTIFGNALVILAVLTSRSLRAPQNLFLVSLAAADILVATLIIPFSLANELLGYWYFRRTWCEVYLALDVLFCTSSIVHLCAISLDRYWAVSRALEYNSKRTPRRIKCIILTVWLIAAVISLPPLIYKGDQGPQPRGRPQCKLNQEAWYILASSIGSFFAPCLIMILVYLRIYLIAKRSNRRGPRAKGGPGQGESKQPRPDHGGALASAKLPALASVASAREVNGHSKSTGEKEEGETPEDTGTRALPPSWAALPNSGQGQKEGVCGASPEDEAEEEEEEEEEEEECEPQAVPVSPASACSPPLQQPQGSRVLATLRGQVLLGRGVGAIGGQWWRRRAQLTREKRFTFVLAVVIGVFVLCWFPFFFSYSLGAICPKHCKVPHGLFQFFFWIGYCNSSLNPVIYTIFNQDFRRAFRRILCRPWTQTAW

[3] = target: T3, Alpha-1A adrenergic receptor (Homo sapiens, UniProt P35348); assay: Binding affinity against Alpha-1A adrenergic receptor
T3 sequence (P35348 whole entry): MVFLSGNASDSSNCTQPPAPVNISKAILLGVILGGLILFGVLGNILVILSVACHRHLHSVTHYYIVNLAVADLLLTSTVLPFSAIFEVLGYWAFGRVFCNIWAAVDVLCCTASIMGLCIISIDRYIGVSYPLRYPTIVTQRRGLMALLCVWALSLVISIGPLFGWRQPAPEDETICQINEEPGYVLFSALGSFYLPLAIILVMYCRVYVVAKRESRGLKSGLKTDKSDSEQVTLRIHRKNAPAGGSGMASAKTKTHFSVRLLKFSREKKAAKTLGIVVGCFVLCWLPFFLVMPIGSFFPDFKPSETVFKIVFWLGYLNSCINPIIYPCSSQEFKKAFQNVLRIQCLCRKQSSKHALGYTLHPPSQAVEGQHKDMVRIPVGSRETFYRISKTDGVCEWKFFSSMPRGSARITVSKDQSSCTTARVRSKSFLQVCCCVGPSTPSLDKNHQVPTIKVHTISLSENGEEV

[4] = target: T4, Alpha-2A adrenergic receptor (Homo sapiens, UniProt P08913); assay: Binding affinity against Alpha-2A adrenergic receptor
T4 sequence (P08913 whole entry): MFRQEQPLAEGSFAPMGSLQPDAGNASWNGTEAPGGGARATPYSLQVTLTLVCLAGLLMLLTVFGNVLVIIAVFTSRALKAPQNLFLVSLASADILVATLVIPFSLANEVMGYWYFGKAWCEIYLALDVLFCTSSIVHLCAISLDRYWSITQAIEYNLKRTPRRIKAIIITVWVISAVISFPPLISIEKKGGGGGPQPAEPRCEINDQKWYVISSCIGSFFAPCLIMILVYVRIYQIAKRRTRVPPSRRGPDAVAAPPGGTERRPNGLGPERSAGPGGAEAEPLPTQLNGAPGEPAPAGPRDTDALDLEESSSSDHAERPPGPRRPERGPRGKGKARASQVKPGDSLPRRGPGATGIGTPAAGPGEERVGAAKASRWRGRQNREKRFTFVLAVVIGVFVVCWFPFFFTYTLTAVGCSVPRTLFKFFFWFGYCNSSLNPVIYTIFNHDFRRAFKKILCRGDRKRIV

[5] = target: Beta-1 adrenergic receptor (Homo sapiens, UniProt P08588); assay: Binding affinity against Beta-1 adrenergic receptor
[6] = target: 5-hydroxytryptamine receptor 2A (Homo sapiens, UniProt P28223); assay: Binding affinity against 5-Hydroxytryptamine 2A receptor
[7] = target: T5, Muscarinic acetylcholine receptor M1 (Homo sapiens, UniProt P11229); assay: Binding affinity against Muscarinic M1 receptor
T5 sequence (P11229 whole entry): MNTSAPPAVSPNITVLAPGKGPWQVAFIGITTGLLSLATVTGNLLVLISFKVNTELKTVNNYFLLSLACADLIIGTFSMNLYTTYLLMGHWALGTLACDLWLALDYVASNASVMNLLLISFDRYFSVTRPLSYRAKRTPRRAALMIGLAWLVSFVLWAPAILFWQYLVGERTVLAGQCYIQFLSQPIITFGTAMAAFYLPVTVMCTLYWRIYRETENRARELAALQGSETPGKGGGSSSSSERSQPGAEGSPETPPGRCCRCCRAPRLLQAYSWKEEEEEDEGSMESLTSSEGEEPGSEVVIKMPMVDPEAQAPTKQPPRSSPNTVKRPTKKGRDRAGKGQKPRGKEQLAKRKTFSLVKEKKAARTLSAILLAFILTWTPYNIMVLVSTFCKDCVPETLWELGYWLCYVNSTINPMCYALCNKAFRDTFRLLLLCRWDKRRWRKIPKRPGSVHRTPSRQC

[8] = target: T6, 5-hydroxytryptamine receptor 2C (Homo sapiens, UniProt P28335); assay: Binding affinity against 5-hydroxytryptamine 2C receptor
T6 sequence (P28335 whole entry): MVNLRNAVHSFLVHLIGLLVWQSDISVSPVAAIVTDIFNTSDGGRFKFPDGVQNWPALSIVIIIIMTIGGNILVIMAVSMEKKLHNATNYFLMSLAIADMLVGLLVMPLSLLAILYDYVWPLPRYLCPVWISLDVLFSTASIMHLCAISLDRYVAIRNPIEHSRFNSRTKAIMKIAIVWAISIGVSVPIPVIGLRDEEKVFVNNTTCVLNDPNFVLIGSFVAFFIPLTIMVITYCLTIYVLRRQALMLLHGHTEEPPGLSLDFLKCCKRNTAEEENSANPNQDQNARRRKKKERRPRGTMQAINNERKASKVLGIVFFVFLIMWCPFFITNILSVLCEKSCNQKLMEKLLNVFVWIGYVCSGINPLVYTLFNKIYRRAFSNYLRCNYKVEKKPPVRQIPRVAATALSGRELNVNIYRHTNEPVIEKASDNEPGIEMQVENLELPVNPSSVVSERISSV

Sequence of Beta-1 adrenergic receptor (P08588 whole entry): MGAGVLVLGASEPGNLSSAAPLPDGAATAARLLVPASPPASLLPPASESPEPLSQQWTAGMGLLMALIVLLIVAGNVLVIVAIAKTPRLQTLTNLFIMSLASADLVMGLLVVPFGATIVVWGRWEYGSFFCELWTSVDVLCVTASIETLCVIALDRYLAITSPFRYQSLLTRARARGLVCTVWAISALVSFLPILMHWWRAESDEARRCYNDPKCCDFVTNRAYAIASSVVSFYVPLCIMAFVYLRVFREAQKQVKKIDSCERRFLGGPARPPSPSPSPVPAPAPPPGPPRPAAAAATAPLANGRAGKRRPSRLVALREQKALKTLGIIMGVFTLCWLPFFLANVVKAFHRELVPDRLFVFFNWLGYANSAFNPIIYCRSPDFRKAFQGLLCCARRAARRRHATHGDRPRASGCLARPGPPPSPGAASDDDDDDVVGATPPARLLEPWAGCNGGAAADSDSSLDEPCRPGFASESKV
Sequence of 5-hydroxytryptamine receptor 2A (P28223 whole entry): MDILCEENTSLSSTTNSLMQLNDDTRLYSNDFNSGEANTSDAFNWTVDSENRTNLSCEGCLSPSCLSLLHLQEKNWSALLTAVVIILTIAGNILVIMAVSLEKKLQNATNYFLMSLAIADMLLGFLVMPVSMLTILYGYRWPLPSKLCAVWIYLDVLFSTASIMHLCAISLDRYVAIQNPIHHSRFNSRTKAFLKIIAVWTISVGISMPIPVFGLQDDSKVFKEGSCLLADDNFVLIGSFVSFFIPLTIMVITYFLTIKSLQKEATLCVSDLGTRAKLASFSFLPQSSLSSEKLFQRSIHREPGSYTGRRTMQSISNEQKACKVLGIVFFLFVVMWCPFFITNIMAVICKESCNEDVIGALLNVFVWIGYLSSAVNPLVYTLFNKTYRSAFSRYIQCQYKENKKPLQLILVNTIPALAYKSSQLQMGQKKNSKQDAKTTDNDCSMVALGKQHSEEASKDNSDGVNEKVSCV
Sequence of D(2) dopamine receptor (P14416 whole entry): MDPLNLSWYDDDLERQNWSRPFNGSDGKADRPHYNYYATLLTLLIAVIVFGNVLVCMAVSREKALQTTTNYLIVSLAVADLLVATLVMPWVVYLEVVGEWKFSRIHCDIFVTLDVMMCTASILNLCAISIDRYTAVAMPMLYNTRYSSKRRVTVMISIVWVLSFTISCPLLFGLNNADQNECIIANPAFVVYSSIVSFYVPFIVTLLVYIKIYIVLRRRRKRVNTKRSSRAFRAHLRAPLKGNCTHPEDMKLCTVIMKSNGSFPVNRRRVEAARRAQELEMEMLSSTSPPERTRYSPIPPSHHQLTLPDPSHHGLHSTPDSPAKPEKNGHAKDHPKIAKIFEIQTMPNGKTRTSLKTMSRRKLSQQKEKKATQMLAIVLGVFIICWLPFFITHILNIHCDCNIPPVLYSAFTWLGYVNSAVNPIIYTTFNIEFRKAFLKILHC

| SMILES | EC50 (Rattus norvegicus) | Ki (D(2) dopamine receptor) | Ki [1] | Ki [2] | Ki [3] | Ki [4] | Ki [5] | Ki [6] | Ki [7] | Ki [8] |
| --- | --- | --- | --- | --- | --- | --- | --- | --- | --- | --- |
| Cn1cc(C(=O)C(=O)N[C@H]2CN3CCC2CC3)c2ccccc21 | 35.5 nM | > 100 µM | > 100 µM | 3.16 µM | > 10 µM | 7.94 µM | > 10 µM | 12.6 µM | 10 µM | 15.8 µM |
| Cn1cc(C(=O)C(=O)N[C@@H]2CN3CCC2CC3)c2ccccc21 | 2140 nM | > 100 µM | > 100 µM | 25.1 µM | 25.1 µM | 31.6 µM | > 100 µM | 25.1 µM | 25.1 µM | 12.6 µM |

— ChEMBL document CHEMBL1128795, “N-(Quinuclidin-3-yl)-2-(1-methyl-1H-indol-3-yl)-2-oxo-acetamide: a high affinity 5-HT3 receptor partial agonist” (Bioorg Med Chem Lett, 1995)
